Data: PMC6045374 (ACS Omega, 2018)

Assays:
[1] = biological target: T1, homoserine kinase (CglThrB-A20G) (Corynebacterium glutamicum, UniProt P07128, A20G); assay: steady-state enzyme kinetics, ADP colorimetric assay; format: biochemical
T1 sequence (P07128 1-309 A20G): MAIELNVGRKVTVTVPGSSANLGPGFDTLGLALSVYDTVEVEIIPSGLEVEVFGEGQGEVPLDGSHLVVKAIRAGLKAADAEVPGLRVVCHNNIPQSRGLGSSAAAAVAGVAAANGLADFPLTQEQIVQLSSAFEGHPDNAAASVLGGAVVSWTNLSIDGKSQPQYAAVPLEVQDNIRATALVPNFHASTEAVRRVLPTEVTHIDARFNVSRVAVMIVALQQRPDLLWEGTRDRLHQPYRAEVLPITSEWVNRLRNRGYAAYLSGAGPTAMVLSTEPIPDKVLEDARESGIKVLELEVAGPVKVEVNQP

[2] = biological target: T2, homoserine kinase (CglThrB-WT) (Corynebacterium glutamicum, UniProt P07128); assay: as above; format: biochemical
T2 sequence (P07128 2-309): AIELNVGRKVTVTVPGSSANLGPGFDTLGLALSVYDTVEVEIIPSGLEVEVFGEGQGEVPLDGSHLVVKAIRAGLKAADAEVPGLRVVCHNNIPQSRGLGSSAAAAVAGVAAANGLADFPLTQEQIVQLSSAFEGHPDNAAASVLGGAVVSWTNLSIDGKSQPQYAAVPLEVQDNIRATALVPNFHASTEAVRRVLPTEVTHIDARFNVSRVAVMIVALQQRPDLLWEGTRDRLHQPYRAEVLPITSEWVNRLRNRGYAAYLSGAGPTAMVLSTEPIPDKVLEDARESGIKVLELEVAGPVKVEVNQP

Compound C[C@@H](O)[C@H](N)C(=O)O [L-threonine] has a Ki [1] of 25.2 mM and a Ki [2] of 4.73 mM.
